Measured values as given in US10730865B2, “Compounds for modulating aquaporins” (APOGLYX AB, priority 2016, dated 2020).

Target: human aquaporin 9 (Homo sapiens (Human), UniProt O43315)
Assay: Calcein quenching fluostar assay (inhibition of human aquaporin 9)
Format: cell-based
Settings: Human AQP9 cell line; example compounds used as 1 mM stock solutions in DMSO
Method: Calcein Quenching Fluostar Assay
A calcein quenching fluostar assay was performed in order to investigate the biological activity of the newly synthesized examples 1 to 57. This type of assay is disclosed in J. Biol. Chem., 2011, 286, 44319-44325 and Am. J. Physiol. Renal Physiol. (2010), 298, F224-230.
1) Two days prior to commencement of the assay, seed 10,000 cells/well of 96 well black clear bottom plate (Greiner Poly-lysin plate). A 1:1 mix of Dulbecco's Modified Eagle's Medium: Nutrient Mixture F-12 (DMEM: F12) was obtained from Gibco. Tetracycline stock of 5 mg/ml in 96% ethanol is used. Medium: DMEM/F12/10% Donor Bovine Serum, Human AQP9 cell line+1:270,000 tetracyclin, mouse AQP9 cell line+1:2,700,000 tetracycline.
2) Day of assay: Flick/slam off the medium and add 50 μl/well of loading solution: 5 ml DMEM/F12/10% Donor Bovine Serum, 25 μl Calcein AM—from freshly dissolved aliquot in 50 μl DMSO (VWR #734-1434), and 100 μl Probenecid.
3) Incubate the well for 90 minutes at 37° C.
4) Perform one wash with 75 μl wash buffer.
5) Add 75 μl of an example compound prepared in wash buffer per well.
Example compounds are prepared in 500 μl U bottom PP plates (NUNC). 2.7 μl Substance in DMSO are added to row A; 180 μl of wash buffer+1% DMSO are added to rows B—H. 90 μl from row A are transferred and mixed with all other wells (up to row G) to make a 3-fold dilution series.
6) Assay in FLUOstar Optima at 25° C. Settings buffer addition at 135 μl/seconds, add 75 μl/well, record time course for 30 seconds, add sucrose buffer 3.6 seconds into recording.
7) Normalization to initial in Excel.
8) Fit to “exponential decay” function in GraphPad Prism 5.0, then arrange half live shrinking values according to wells and fit dose-response curves.

Sequence of human aquaporin 9 (O43315 whole entry): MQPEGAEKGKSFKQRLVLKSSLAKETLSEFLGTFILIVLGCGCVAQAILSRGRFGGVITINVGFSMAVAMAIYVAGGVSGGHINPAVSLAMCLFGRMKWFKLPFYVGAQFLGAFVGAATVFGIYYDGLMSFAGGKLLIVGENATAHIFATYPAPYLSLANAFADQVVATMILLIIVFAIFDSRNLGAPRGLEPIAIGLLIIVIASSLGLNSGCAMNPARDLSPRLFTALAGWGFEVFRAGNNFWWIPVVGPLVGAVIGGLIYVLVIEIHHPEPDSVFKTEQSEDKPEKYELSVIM

SMILES	EC50 [nM]	pEC50 in the inhibition of human aquaporin 9
CCc1nnc(SCC(=O)Nc2nnc(-c3ccc(OC)cc3)s2)n1-c1ccccc1 [Example 1, 2-[(5-ethyl-4-phenyl-4H-1,2,4-triazol-3-yl)sulfanyl]-N-[5-(4-methoxyphenyl)-1,3,4-thiadiazol-2-yl]acetamide]	173	
CCc1nnc(SCC(=O)Nc2nnc(-c3ccc(OC)cc3)s2)n1CC [Example 2, 2-[(diethyl-4H-1,2,4-triazol-3-yl)sulfanyl]-N-[5-(4-methoxyphenyl)-1,3,4-thiadiazol-2-yl]acetamide]	59	
CCn1c(Cc2ccccc2)nnc1SCC(=O)Nc1nnc(-c2ccc(OC)cc2)s1 [Example 3, 2-[(5-benzyl-4-ethyl-4H-1,2,4-triazol-3-yl)sulfanyl]-N-[5-(4-methoxyphenyl)-1,3,4-thiadiazol-2-yl]acetamide]	195	6.7
CCn1c(OCC(=O)Nc2nnc(-c3ccc(OC)cc3)s2)nnc1-c1ccc(F)cc1 [Example 4, 2-{[4-ethyl-5-(4-fluorophenyl)-4H-1,2,4-triazol-3-yl]oxy}-N-[5-(4-methoxyphenyl)-1,3,4-thiadiazol-2-yl]acetamide]	175	
CCn1c(C)nnc1SCC(=O)Nc1nnc(-c2ccc(S(C)(=O)=O)cc2)s1 [Example 5, 2-[(4-ethyl-5-methyl-4H-1,2,4-triazol-3-yl)sulfanyl]-N-[5-(4-methanesulfonylphenyl)-1,3,4-thiadiazol-2-yl]acetamide]	455	
CCn1c(SCC(=O)Nc2nnc(-c3ccc(S(C)(=O)=O)cc3)s2)nnc1C(C)C [Example 6, 2-{[4-ethyl-5-(propan-2-yl)-4H-1,2,4-triazol-3-yl]sulfanyl}-N-[5-(4-methanesulfonylphenyl)-1,3,4-thiadiazol-2-yl]acetamide]	192	6.7
CCn1c(SCC(=O)Nc2nnc(-c3ccc(S(C)(=O)=O)cc3)s2)nnc1C1CC1 [Example 7, 2-[(5-cyclopropyl-4-ethyl-4H-1,2,4-triazol-3-yl)sulfanyl]-N-[5-(4-methanesulfonylphenyl)-1,3,4-thiadiazol-2-yl]acetamide]	105	7
CCc1nnc(SCC(=O)Nc2nnc(-c3ccc(S(C)(=O)=O)cc3)s2)n1CC [Example 8, 2-[(diethyl-4H-1,2,4-triazol-3-yl)sulfanyl]-N-[5-(4-methanesulfonylphenyl)-1,3,4-thiadiazol-2-yl]acetamide]	66	7.2
CCn1c(SCC(=O)Nc2ccc(-c3ccc(OC)cc3)nn2)nnc1-c1ccc(F)cc1 [Example 9, 2-{[4-ethyl-5-(4-fluorophenyl)-4H-1,2,4-triazol-3-yl]sulfanyl}-N-[6-(4-methoxyphenyl)pyridazin-3-yl]acetamide]	87	
CCc1nnc(SCC(=O)Nc2nnc(-c3ccc(OC)cc3)s2)n1C [Example 10, 2-[(5-ethyl-4-methyl-4H-1,2,4-triazol-3-yl)sulfanyl]-N-[5-(4-methoxyphenyl)-1,3,4-thiadiazol-2-yl]acetamide]	101	7
COc1ccc(-c2nnc(NC(=O)CSc3nnc(C)n3-c3ccccc3)s2)cc1 [Example 11, N-[5-(4-methoxyphenyl)-1,3,4-thiadiazol-2-yl]-2-[(5-methyl-4-phenyl-4H-1,2,4-triazol-3-yl)sulfanyl]acetamide]	394	6.4
CCc1nnc(SCC(=O)Nc2nnc(-c3ccc(SC)cc3)s2)n1CC [Example 12]	57	
CCc1nnc(SCC(=O)Nc2nnc(-c3ccc(OCC(C)C)cc3)s2)n1CC [Example 13, 2-[(diethyl-4H-1,2,4-triazol-3-yl)sulfanyl]-N-{5-[4-(2-methylpropoxy)phenyl]-1,3,4-thiadiazol-2-yl}acetamide]	101	7
CCc1ccc(-c2nnc(NC(=O)CSc3nnc(CC)n3CC)s2)cc1 [Example 14, 2-[(diethyl-4H-1,2,4-triazol-3-yl)sulfanyl]-N-[5-(4-ethylphenyl)-1,3,4-thiadiazol-2-yl]acetamide]	65	7.2

The next lines start with the values.

EC50 [nM]	pEC50 in the inhibition of human aquaporin 9	SMILES
57		CCCc1ccc(-c2nnc(NC(=O)CSc3nnc(CC)n3CC)s2)cc1 [Example 15, 2-[(diethyl-4H-1,2,4-triazol-3-yl)sulfanyl]-N-[5-(4-propylphenyl)-1,3,4-thiadiazol-2-yl]acetamide]
179		CCCCc1ccc(-c2nnc(NC(=O)CSc3nnc(CC)n3CC)s2)cc1 [Example 16, 2-[(diethyl-4H-1,2,4-triazol-3-yl)sulfanyl]-N-[5-(4-butylphenyl)-1,3,4-thiadiazol-2-yl]acetamide]
127	6.9	CCc1nnc(SCC(=O)Nc2nnc(-c3ccccc3)s2)n1CC [Example 17, 2-[(diethyl-4H-1,2,4-triazol-3-yl)sulfanyl]-N-(5-phenyl-1,3,4-thiadiazol-2-yl)acetamide]
124	6.9	CCc1nnc(SCC(=O)Nc2nnc(-c3ccc4c(c3)CCO4)s2)n1CC [Example 18, 2-[(diethyl-4H-1,2,4-triazol-3-yl)sulfanyl]-N-[5-(2,3-dihydro-1-benzofuran-5-yl)-1,3,4-thiadiazol-2-yl]acetamide]
94		CCc1nnc(SCC(=O)Nc2nnc(-c3ccc(CC(C)C)cc3)s2)n1CC [Example 19, 2-[(diethyl-4H-1,2,4-triazol-3-yl)sulfanyl]-N-{5-[4-(2-methylpropyl)phenyl]-1,3,4-thiadiazol-2-yl}acetamide]
79	7.1	CCc1nnc(SCC(=O)Nc2nnc(-c3ccc(C(C)C)cc3)s2)n1CC [Example 20, 2-[(diethyl-4H-1,2,4-triazol-3-yl)sulfanyl]-N-{5-[4-(propan-2-yl)phenyl]-1,3,4-thiadiazol-2-yl}acetamide]
224		CCc1nnc(SCC(=O)Nc2nnc(-c3ccc(O)cc3)s2)n1CC [Example 21, 2-[(diethyl-4H-1,2,4-triazol-3-yl)sulfanyl]-N-[5-(4-hydroxyphenyl)-1,3,4-thiadiazol-2-yl]acetamide]
249		CCn1c(CCOC)nnc1SCC(=O)Nc1nnc(-c2ccccc2)s1 [Example 22, 2-{[4-ethyl-5-(2-methoxyethyl)-4H-1,2,4-triazol-3-yl]sulfanyl}-N-(5-phenyl-1,3,4-thiadiazol-2-yl)acetamide]
39	7.4	CCn1c(CCOC)nnc1SCC(=O)Nc1nnc(-c2ccc(OC(C)C)cc2)s1 [Example 23, 2-{[4-ethyl-5-(2-methoxyethyl)-4H-1,2,4-triazol-3-yl]sulfanyl}-N-{5-[4-(propan-2-yloxy)phenyl]-1,3,4-thiadiazol-2-yl}acetamide]
41	7.4	CCCc1ccc(-c2nnc(NC(=O)CSc3nnc(CCOC)n3CC)s2)cc1 [Example 24, 2-{[4-ethyl-5-(2-methoxyethyl)-4H-1,2,4-triazol-3-yl]sulfanyl}-N-[5-(4-propylphenyl)-1,3,4-thiadiazol-2-yl]acetamide]
42		CCOc1ccc(-c2nnc(NC(=O)CSc3nnc(CC)n3CC)s2)cc1 [Example 25, 2-[(diethyl-4H-1,2,4-triazol-3-yl)sulfanyl]-N-[5-(4-ethoxyphenyl)-1,3,4-thiadiazol-2-yl]acetamide]
